Experimental findings from ChEMBL document CHEMBL5584361, “Re-Evaluating PIN1 as a Therapeutic Target in Oncology Using Neutral Inhibitors and PROTACs” (J Med Chem, 2024) are described below.

Each structure is given as a SMILES string.

Data set [1] deals with T1, Peptidyl-prolyl cis-trans isomerase NIMA-interacting 1 (Homo sapiens, UniProt Q13526). Kind of data set: Binding affinity to GST-tagged PIN1 (unknown origin) assessed as dissociation constant by SPR analysis. (Surface plasmon resonance follows binding to a sensor surface in real time, without labels.)
T1 sequence (Q13526 whole entry): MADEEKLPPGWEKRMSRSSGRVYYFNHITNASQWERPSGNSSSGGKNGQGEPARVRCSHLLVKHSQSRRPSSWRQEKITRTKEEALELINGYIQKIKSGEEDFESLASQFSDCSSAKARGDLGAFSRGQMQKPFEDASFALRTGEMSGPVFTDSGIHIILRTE
The target in data set [2] is T1, Peptidyl-prolyl cis-trans isomerase NIMA-interacting 1. The data set is described as follows: Inhibition of His-tagged PIN1 (unknown origin) TAMRA labelled Bth-D-pThr-Pip-L-2Nal as substrate incubated for 30 mins by fluorescence polarization analysis. On the technique in general: In fluorescence polarisation assays a small probe gives low polarisation when free and higher when bound to something large.

A further data set deals with MDA-MB-468. Kind of data set: Antiproliferative activity against human MDA-MB-468 cells assessed as cell growth inhibition incubated for 96 hrs by Cell-Titer Glo assay. The note with it: MDA-MB-468, 96 h.
For another data set, the system named is PANC-1. The data set is described as follows: Antiproliferative activity against human PANC-1 cells assessed as cell growth inhibition incubated for 96 hrs by Cell-Titer Glo assay. The note with it: PANC-1, 96 h.
The next data set relates to Huh-7. The data set is described as follows: Antiproliferative activity against human Huh-7 cells assessed as cell growth inhibition incubated for 96 hrs by Cell-Titer Glo assay. To be noted: Huh-7, 96 h.
Data set [3] concerns the target Protein cereblon/Peptidyl-prolyl cis-trans isomerase NIMA-interacting 1 (Homo sapiens, UniProt Q13526+Q96SW2). Kind of data set: PROTAC activity at CRBN/PIN1 in human MDA-MB-468 cells assessed as induction of PIN1 degradation incubated for 24 hrs by high content analysis.
Data set [4] in a line: Permeability across apical to basolateral side in MDCK cells incubated for 120 mins by LC-MS/MS analysis. The note with it: dog.
Data set [5] addresses T1, Peptidyl-prolyl cis-trans isomerase NIMA-interacting 1. The data set is described as follows: Inhibition of recombinant human PIN1 prolyl isomerase activity measured after 180 mins.
Data set [6] has the same target.
Data set [7] can be described thus: Efflux ratio of permeability across basolateral to apical side over apical to basolateral side in MDCK cells incubated for 120 mins by LC-MS/MS analysis. The note with it: dog.

Protein cereblon/Peptidyl-prolyl cis-trans isomerase NIMA-interacting 1, sequence (Q13526 whole entry): as above
Protein cereblon/Peptidyl-prolyl cis-trans isomerase NIMA-interacting 1, sequence (Q96SW2 whole entry): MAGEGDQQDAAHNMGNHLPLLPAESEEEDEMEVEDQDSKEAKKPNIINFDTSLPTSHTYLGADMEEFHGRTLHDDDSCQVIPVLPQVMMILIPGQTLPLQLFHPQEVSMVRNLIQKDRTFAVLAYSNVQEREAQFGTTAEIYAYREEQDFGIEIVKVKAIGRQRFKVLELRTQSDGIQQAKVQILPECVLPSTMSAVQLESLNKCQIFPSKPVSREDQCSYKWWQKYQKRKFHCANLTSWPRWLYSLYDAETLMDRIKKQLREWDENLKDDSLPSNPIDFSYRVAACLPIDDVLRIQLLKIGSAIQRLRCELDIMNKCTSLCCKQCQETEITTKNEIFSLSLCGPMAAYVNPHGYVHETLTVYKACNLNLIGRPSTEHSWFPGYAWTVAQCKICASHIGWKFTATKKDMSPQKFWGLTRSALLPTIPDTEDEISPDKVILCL

As a reminder, the Kd is the equilibrium constant for the complex coming apart. The term IC50 denotes the concentration needed to halve the response being measured. One may read the GI50 as the concentration that inhibits growth by half. In the case of `CNC(=O)C(Cc1cn(-c2ccc(-c3ccc(C#N)cc3)cc2)nn1)NC(=O)C1(c2ncccc2C)CC1` (stereo unspecified), in data set [1], the Kd amounted to 0.37 µM. The compound further had an IC50 in data set [2] of 0.36 µM. The GI50 in the data set with MDA-MB-468 was 4.6 µM; in the data set with PANC-1, over 30 µM; with Huh-7, over 30 µM.

In data set [2], `CNC(=O)C(Cc1cn(-c2ccc(C3CCN(C)CC3)cc2)nn1)NC(=O)C1(c2ccccc2)CC1` (stereo unspecified) returned a concentration for half-maximal inhibition (IC50) of over 100 µM.

The term DC50 denotes the concentration at which degradation of the target reaches its halfway point. For `Cc1cccnc1C1(C(=O)NC(Cc2cn(-c3ccc(-c4ccc(C#N)cc4)cc3)nn2)C(=O)NC2CCN(CCCCCOc3cccc4c3C(=O)N(C3CCC(=O)NC3=O)C4=O)CC2)CC1` (stereo unspecified), the GI50 in the data set on MDA-MB-468, in the data set on PANC-1 and in the data set with Huh-7 was over 30 µM each time. The DC50 in data set [3] stood at 0.019 µM.

For orientation: Papp A→B means the apparent permeability from the apical to the basolateral side of a cell layer. Low readings indicate slow passage, high ones fast passage. For `Cc1ccccc1C1(C(=O)NC(Cc2cn(-c3ccc(-c4ccc(C#N)cc4)cc3)nn2)C(=O)NC2CCN(C)CC2)CC1` (stereo unspecified), the values for the GI50 with MDA-MB-468, with PANC-1 and in the data set on Huh-7 were 36.8 µM, 9.3 µM and 9.9 µM, respectively. Besides, in data set [4], the Papp A→B at 2 h was determined as 0.01 ×10⁻⁶ cm/s.

Turning to `CC(C)(C)c1ccc(S(=O)(=O)/N=C2\C=C(SCC(=O)O)C(=O)c3ccccc32)cc1`, in data set [5], the IC50 was 0.64 µM.

In the case of `CNC(=O)C(Cc1cn(-c2ccn(C)n2)nn1)NC(=O)C1(c2ccccc2)CC1` (stereo unspecified), the Kd in data set [1] worked out at 39.3 µM. In addition, in [2], the IC50 was over 10 µM.

For `CNC(=O)C(Cc1cn(Cc2cc3ccccc3s2)nn1)NC(=O)C1(c2ccccc2)CC1` (stereo unspecified), the dissociation constant (Kd) in data set [1] is over 50 µM. In [2], the IC50 is over 100 µM.

The compound `CNC(=O)C(Cc1cn(-c2ccc(-c3ccc(C#N)cc3)cc2)nn1)NC(=O)C1(c2ccccc2)CCCCC1` (stereo unspecified) returned an IC50 in [2] of over 100 µM.

The Ki is a dissociation constant, usually derived from enzyme kinetics or from competition with a known ligand. Read a low Ki as higher affinity. In [6], `CC(C)(C)CN(C(=O)CCl)C1CCS(=O)(=O)C1` (stereo unspecified) returned an inhibitory constant (Ki) of 0.017 µM.

Turning to `Cc1cccnc1C1(C(=O)NC(Cc2cn(-c3ccc(-c4ccc(C#N)cc4)cc3)nn2)C(=O)NCCCOc2cccc3c2C(=O)N(C2CCC(=O)NC2=O)C3=O)CC1` (stereo unspecified), the GI50 in the data set with MDA-MB-468 is 2.7 µM; in the data set on PANC-1, over 30 µM; in the data set on Huh-7, 5.8 µM. Moreover, in data set [3], the 50% degradation concentration (DC50) worked out at 0.02 µM.

In the case of `Cc1cccnc1C1(C(=O)NC(Cc2cn(-c3ccc(-c4ccc(C#N)cc4)cc3)nn2)C(=O)NCCCCOc2cccc3c2C(=O)N(C2CCC(=O)NC2=O)C3=O)CC1` (stereo unspecified), the figures for the GI50 with MDA-MB-468, with PANC-1 and in the data set with Huh-7 were 16.5 µM, over 30 µM and 20.7 µM, respectively. Also, the half-maximal degradation concentration (DC50) in data set [3] worked out at 0.071 µM.

Take `CNC(=O)C(Cc1cn(-c2ccc(-c3ccc(C#N)cc3)cc2)nn1)NC(=O)C1(c2ccccc2)CCCC1` (stereo unspecified): the concentration for half-maximal inhibition (IC50) in data set [2] is over 100 µM.

In the case of `Cc1cccnc1C1(C(=O)NC(Cc2cn(-c3ccc(-c4ccc(C#N)cc4)cc3)nn2)C(=O)NC2CCN(CCCOc3cccc4c3C(=O)N(C3CCC(=O)NC3=O)C4=O)CC2)CC1` (stereo unspecified), the 50% growth inhibitory concentration (GI50) with MDA-MB-468, in the data set on PANC-1 and in the data set on Huh-7 was over 30 µM each time. In addition, the DC50 in data set [3] was 0.041 µM.

In data set [2], `CNC(=O)C(Cc1cn(-c2ccc(-c3ccc(C#N)cc3)cc2)nn1)NC(=O)Cc1ccccc1` (stereo unspecified) yielded a 50% inhibitory concentration (IC50) of over 100 µM.

In turn, `CNC(=O)C(Cc1cn(-c2ccc(-c3ccc(C#N)cc3)cc2)nn1)NC(=O)C1(c2ccccc2)CCC1` (stereo unspecified) gave a half-inhibitory concentration (IC50) in [2] of over 100 µM.

In general, efflux ratio refers to the permeability from basolateral to apical divided by that in the opposite direction, in the common usage. With `CNC(=O)/C(=C\c1cn(-c2ccc(-c3ccc(C#N)cc3)cc2)nn1)NC(=O)C1(c2ccccc2C)CC1`, the Kd in data set [1] was 0.12 µM. This compound returned an IC50 in [2] of 0.25 µM. The figures for the GI50 in the data set with MDA-MB-468, with PANC-1 and with Huh-7 were 13.8 µM, 23.1 µM and 15.4 µM, respectively. In data set [4], this compound returned a Papp A→B at 2 h of 0.78 ×10⁻⁶ cm/s. For the same compound, the efflux ratio at 2 h in data set [7] was 4.77.

For `CNC(=O)C(Cc1cn(-c2ccc(-c3ccc(C#N)cc3)cc2)nn1)NC(=O)C(C)(C)c1ccccc1` (stereo unspecified), in data set [1], the Kd is 2.93 µM. Also, in [2], the IC50 came to 2.09 µM.

The compound `CC(C)(C)NC(=O)C(Cc1cn(-c2ccc(-c3ccc(C#N)cc3)cc2)nn1)NC(=O)C1(c2ccccc2)CC1` (stereo unspecified) gave a 50% inhibitory concentration (IC50) in [2] of over 100 µM.
